Reference: the NIST ThermoML archive (doi:10.1021/acs.jced.7b00035)
Values joined by “and” are separate entries in the source; they are usually repeats but may differ in a detail not shown here. Identical values can stand only once.

Columns and labels:
[1] = excess molar enthalpy (molar enthalpy of mixing); xn = mol fraction of the nth substance listed; details: 100 kPa, Liquid, Flow calorimetry
[2] = xn = mol fraction of the nth substance listed; details: 100 kPa, Liquid, Vibrating tube method

CC(=O)C(C)C [3-methyl-2-butanone] + O
Details | excess molar enthalpy, [1] | mass density, [2]
288.15 K, x1 = 0.000837 | -0.0025 kcal/mol | 998.559 kg/m3 and 998.558 kg/m3
288.15 K, x1 = 0.001672 | -0.00495 kcal/mol and -0.00497 kcal/mol | 998.026 kg/m3 and 998.025 kg/m3
288.15 K, x1 = 0.002505 | -0.00739 kcal/mol | 997.502 kg/m3
288.15 K, x1 = 0.002506 | -0.0074 kcal/mol | 997.502 kg/m3
288.15 K, x1 = 0.003337 | -0.00974 kcal/mol | 996.996 kg/m3
288.15 K, x1 = 0.003339 | -0.00976 kcal/mol | 996.993 kg/m3
288.15 K, x1 = 0.004168 | -0.0121 kcal/mol | 996.494 kg/m3
288.15 K, x1 = 0.004171 | -0.0121 kcal/mol | 996.488 kg/m3
288.15 K, x1 = 0.004998 | -0.0145 kcal/mol | 995.988 kg/m3
288.15 K, x1 = 0.005001 | -0.0144 kcal/mol | 996 kg/m3
298.15 K, x1 = 0.000836 | -0.00207 kcal/mol | 996.47 kg/m3
298.15 K, x1 = 0.001671 | -0.00411 kcal/mol | 995.897 kg/m3
298.15 K, x1 = 0.001672 | -0.00411 kcal/mol | 995.899 kg/m3
298.15 K, x1 = 0.002505 | -0.00612 kcal/mol and -0.00606 kcal/mol | 995.337 kg/m3 and 995.348 kg/m3
298.15 K, x1 = 0.003337 | -0.00802 kcal/mol and -0.00799 kcal/mol | 994.799 kg/m3 and 994.805 kg/m3
298.15 K, x1 = 0.004166 | -0.00989 kcal/mol | 994.261 kg/m3
298.15 K, x1 = 0.004168 | -0.00994 kcal/mol | 994.254 kg/m3
298.15 K, x1 = 0.004994 | -0.0118 kcal/mol | 993.729 kg/m3
298.15 K, x1 = 0.004998 | -0.0118 kcal/mol | 993.722 kg/m3
308.15 K, x1 = 0.000836 | -0.00164 kcal/mol | 993.424 kg/m3
308.15 K, x1 = 0.000837 | -0.00163 kcal/mol | 993.426 kg/m3
308.15 K, x1 = 0.001672 | -0.00322 kcal/mol and -0.00323 kcal/mol | 992.827 kg/m3 and 992.824 kg/m3
308.15 K, x1 = 0.002504 | -0.00478 kcal/mol | 992.235 kg/m3
308.15 K, x1 = 0.002506 | -0.00482 kcal/mol | 992.224 kg/m3
308.15 K, x1 = 0.003336 | -0.00632 kcal/mol | 991.647 kg/m3
308.15 K, x1 = 0.00334 | -0.00634 kcal/mol | 991.646 kg/m3
308.15 K, x1 = 0.004167 | -0.00783 kcal/mol | 991.064 kg/m3
308.15 K, x1 = 0.004171 | -0.00781 kcal/mol | 991.067 kg/m3
308.15 K, x1 = 0.005001 | -0.00926 kcal/mol | 990.494 kg/m3
318.15 K, x1 = 0.000836 | -0.00121 kcal/mol | 989.576 kg/m3 and 989.578 kg/m3
318.15 K, x1 = 0.00167 | -0.00239 kcal/mol | 988.947 kg/m3
318.15 K, x1 = 0.001671 | -0.00239 kcal/mol | 988.945 kg/m3
318.15 K, x1 = 0.002338 | -0.0033 kcal/mol | 988.447 kg/m3
318.15 K, x1 = 0.002505 | -0.00353 kcal/mol | 988.318 kg/m3
318.15 K, x1 = 0.003336 | -0.00465 kcal/mol | 987.702 kg/m3
318.15 K, x1 = 0.003337 | -0.00465 kcal/mol | 987.696 kg/m3
318.15 K, x1 = 0.004167 | -0.00571 kcal/mol | 987.091 kg/m3
318.15 K, x1 = 0.004168 | -0.00573 kcal/mol | 987.083 kg/m3
318.15 K, x1 = 0.004997 | -0.00677 kcal/mol | 986.477 kg/m3
318.15 K, x1 = 0.004998 | -0.00677 kcal/mol | 986.481 kg/m3
